Where a SMILES comes first, the peptide text is derived from it. The star is where a group is joined. Cbz = O=C(OCc1ccccc1)*; CH2F = FC*
Assays:
[1] = test system: hair cells of organ of Corti; assay: Mitochondrial function and hair cell survival in organ of Corti treated with cisplatin; format: cell-based; conditions: cisplatin treatment alone (FIGS. 3B, 3E)
Source text: FIGS. 3A-3F are fluorescent micrographs showing mitochondrial function in hair cells. Cells with healthy and functioning mitochondria stain red and are depicted in 3D, 3E and 3F. The presence of hair cells are shown in green and depicted in 3A, 3B and 3C. FIGS. 3A and 3D represent untreated controls. FIGS. 3B and 3E show an organ of Corti treated with the chemotherapeutic agent cisplatin. […] FIGS. 3C and 3F show an organ of Corti pretreated with an adenovector with bcl2 expression followed by cisplatin treatment.

inner ear = assay: Hearing by auditory brainstem response after round window injection of vector; format: in vivo, mouse; conditions: for protection of hearing / prevention of inner ear trauma by caspase inhibitor: larger volumes of fluid (greater than about 10% of total inner ear volume), hydraulic/mechanical injury
cathepsin B = cathepsin B (Homo sapiens, UniProt P07858); conditions: in vitro and in tissue culture cells at concentrations used to demonstrate the involvement of caspases; cited from earlier work

| Structure (SMILES) | hair cells and mitochondrial function in organ of Corti [1] | protection of hearing / prevention of inner ear trauma by caspase inhibitor (inner ear) | protection of hearing / prevention of inner ear trauma by caspase inhibitor (inner ear; listed as pancaspase inhibitor) | hearing loss with pancaspase inhibitor added to the vector composition (inner ear; round window, injection volumes up to 3 μL, zVAD-FMK 1 mM, 2 μL with 1 μL vector) | cathepsin B activity inhibition (cathepsin B) |
| --- | --- | --- | --- | --- | --- |
| N.N.[Cl][Pt][Cl] [cisplatin] | loss of cells and loss of mitochondrial function | – | – | – | – |
| CC(C)[C@H](NC(=O)OCc1ccccc1)C(=O)N[C@@H](C)C(=O)N[C@@H](CC(=O)O)C(=O)CF [zVAD-FMK, N-benzyloxycarbonyl-Val-Ala-Asp-fluoromethylketone] (Cbz-Val-Ala-Asp-CH2F) | – | can prevent inner ear trauma | protected hearing | only minimal loss of hearing | inhibit efficiently cathepsin B activity |

From patent US20050095270A1, “Drug delivery to the inner ear and methods of using same” (priority 2003, published 2005)
